# Test results published in ChEMBL document CHEMBL3301361, “Experimental in vitro DMPK and physicochemical data on a set of publicly disclosed compounds”.
# Several values for one entry are separate records, joined by “and”; a condition that tells them apart may be missing. Equal entries are not always repeated.
# Columns and labels:
# [1] = physchem; details: octan-1-ol/water
# [2] = in vitro; details: human, plasma
# [3] = in vitro; details: SD, HW or BN, rat, plasma
# [4] = in vitro; details: Beagle, dog, plasma
# [5] = in vitro; details: Dunkin Hartley, guinea pig, plasma
# [6] = physchem
# [7] = buffer, pH 7.4
# [8] = physchem; remark: listed apart in the source
# [9] = physchem; remark: listed apart in the source
# [10] = physchem; remark: listed apart in the source
# [11] = physchem; details: pH 7.4 buffer
# [12] = in vitro; details: hepatocytes
# [13] = in vitro; details: human, hepatocytes
# [14] = in vitro; details: human
# [15] = in vitro; details: mouse, plasma
smiles,measurement,setting,value
CN1CCN(C2=Nc3cc(Cl)ccc3Nc3ccccc32)CC1 [CLOZAPINE],logD,[1]; pH 7.4,3.08
same,fraction unbound at 5 h,[2],0.0521
same,fraction unbound at 5 h,[3],0.0647
same,fraction unbound at 5 h,[4],0.0736
same,fraction unbound at 5 h,[5],0.0872
same,pKa,[6],3.99
CN1CCN(CCCN2c3ccccc3Sc3ccc(C(F)(F)F)cc32)CC1 [TRIFLUOPERAZINE],LogD7.4,[7],4.31
same,fraction unbound at 5 h,[2]; PPB,0.0081
same,fraction unbound at 5 h,[3],0.007
Cc1c(S(=O)(=O)c2ccc(Cl)cc2)c2c(NS(C)(=O)=O)cccc2n1CC(=O)O,logD,"[1]; pH 7.4, LogD7.4",-0.83
same,pKa,[8],2.8
same,pKa,[9],9.8
CC(C)/N=c1\cc2n(-c3ccc(Cl)cc3)c3ccccc3nc-2cc1Nc1ccc(Cl)cc1 [CLOFAZIMINE],LogD7.4,[7],3.17
same,pKa,[10],8.8
same,solubility thermodynamic,[11],0.7 µM
same,fraction unbound at 5 h,[3],0.0037
Cc1c(Sc2ccc(Cl)cc2)c2c(NS(C)(=O)=O)cccc2n1CC(=O)O,logD,"[1]; pH 7.4, LogD7.4",0.21
same,fraction unbound at 5 h,[2]; PPB,0.0104
same,fraction unbound at 5 h,[3],0.0031
same,hepatocyte CLint,[12],5 µL/min/1e6 cells
same,hepatocyte CLint,[13],4.76 µL/min/1e6 cells
same,pKa,[8],2.9
same,pKa,[9],10.2
COc1cc(N)c(Cl)cc1C(=O)NC1CCN(CCCOc2ccc(F)cc2)CC1OC (stereo unspecified) [CISAPRIDE],LogD7.4,[7],3.56
CCOC(=O)C1(c2ccccc2)CCN(C)CC1 [MEPERIDINE],LogD7.4,[7],1.4
CC1(C)NC(=O)N(c2ccc([N+](=O)[O-])c(C(F)(F)F)c2)C1=O [NILUTAMIDE],LogD7.4,[7],1.74
same,solubility thermodynamic,[11],234 µM
O=C(O)c1cccc(CN2CCC(CN3CCC(Oc4ccc(Cl)c(Cl)c4)CC3)CC2)c1,pKa,[10],9.6
same,microsomal CLint,[14]; microsomes,< 3 µL/min/mg
same,pKa,[6],7.7
same,pKa,[8],3.5
CCCc1c2nc(C(=O)O)cc(NC)c2cc2c(=O)cc(C(=O)O)oc12 [MINOCROMIL],pKa,[10],8.8
same,pKa,[8],< 2
same,pKa,[9],< 2
O=C(O)CCCCCCCC(=O)O [AZELAIC ACID],pKa,[8],3.49
same,pKa,[9],5.87
O=C(O)c1cc(=O)c2c(OCC(O)COc3cccc4oc(C(=O)O)cc(=O)c34)cccc2o1 [CROMOLYN],pKa,[8],< 2
same,pKa,[9],< 2
O=C([C@H]1CCCCN1)N1CCN(c2nc(NCc3ccc(Cl)cc3Cl)c3cccnc3n2)CC1,pKa,[10],9
same,logD,"[1]; pH 7.4, LogD7.4",2.27
same,microsomal CLint,[14]; liver microsomes,24 µL/min/mg
same,hepatocyte CLint,[12],9.88 µL/min/1e6 cells
same,pKa,[6],5.7
CCN(CC)c1ccc(-c2nn3c(-c4n[nH]c5c4CCC5)nnc3s2)cc1,LogD7.4,[7],3.37
NC(=O)N1c2ccccc2CC(=O)c2ccccc21 [OXCARBAZEPINE],LogD7.4,[7],1.28
CCS(=O)(=O)c1ccc(-c2cc(Cl)ccc2OCC(=O)O)cc1,LogD7.4,[7],-0.78
same,fraction unbound at 5 h,[2]; PPB,0.0274
same,microsomal CLint,[14]; liver microsomes,< 3 µL/min/mg
COc1cc2ncnc(Nc3ccc(F)c(Cl)c3)c2cc1NC(=O)/C=C/CN1CCCCC1 [DACOMITINIB ANHYDROUS],pKa,[10],9.36
same,logD,"[1]; pH 7.4, LogD7.4",4.1
same,solubility thermodynamic,[11],6.8 µM
same,fraction unbound at 5 h,[2]; PPB,0.0179
same,hepatocyte CLint,[12],9.77 µL/min/1e6 cells
same,hepatocyte CLint,[13],< 3 µL/min/1e6 cells
same,pKa,[6],5.2
Clc1ccc(COC(Cn2ccnc2)c2ccc(Cl)cc2Cl)cc1 (stereo unspecified) [ECONAZOLE],LogD7.4,[7],2.54
CN1CCC[C@@H]1CCO[C@](C)(c1ccccc1)c1ccc(Cl)cc1 [CLEMASTINE],LogD7.4,[7],3.48
same,logD,"[1]; pH 7.4, LogD7.4",3.04
O=C(O)[C@H](Cc1ccccc1)N1CCC(CN2CCC(Oc3ccc(Cl)c(Cl)c3)CC2)CC1,pKa,[10],9.25
same,solubility thermodynamic,[11],13.5 µM
same,fraction unbound at 5 h,[3],0.183
same,fraction unbound at 5 h,[4],0.11
same,fraction unbound at 5 h,[15],0.154
same,fraction unbound at 5 h,[5],0.58
same,microsomal CLint,[14]; liver microsomes,< 3 µL/min/mg
same,pKa,[6],7.75
same,pKa,[8],3.1
O=C1CC2(CCCC2)CC(=O)N1CCCCN1CCN(c2ncccn2)CC1 [BUSPIRONE],pKa,[10],7.61
same,solubility thermodynamic,[11],1450 µM
same,microsomal CLint,[14]; liver microsomes,116 µL/min/mg
same,hepatocyte CLint,[13],38.9 µL/min/1e6 cells
same,pKa,[6],5.48
N#Cc1ccc(C[C@@H](C(=O)O)N2CCC(CN3CCC(Oc4ccc(Cl)c(Cl)c4)CC3)CC2)cc1,pKa,[10],8.9
same,solubility thermodynamic,[11],53.7 µM
same,fraction unbound at 5 h,[2]; PPB,0.0521
same,fraction unbound at 5 h,[3],0.0968
same,fraction unbound at 5 h,[4],0.166
same,fraction unbound at 5 h,[15],0.197
same,pKa,[6],7
CC/C(=C(/c1ccc(O)cc1)c1ccc(/C=C/C(=O)O)cc1)c1ccccc1,solubility thermodynamic,[11],1 µM
same,microsomal CLint,[14]; liver microsomes,33.9 µL/min/mg
same,hepatocyte CLint,[12],69.2 µL/min/1e6 cells
same,hepatocyte CLint,[13],55 µL/min/1e6 cells
same,pKa,[9],9.55
O=C(NCC12CC3CC(CC(C3)C1)C2)c1cc(CN2CC3CNCC(C2)O3)ccc1Cl,pKa,[10],10
same,logD,"[1]; pH 7.4, LogD7.4",1.55
same,fraction unbound at 5 h,[2]; PPB,0.0467
same,microsomal CLint,[14]; microsomes,15 µL/min/mg
same,hepatocyte CLint,[12],9 µL/min/1e6 cells
same,pKa,[6],9
O=c1c2ccccc2[se]n1-c1ccccc1 [EBSELEN],LogD7.4,[7],3.31
NCc1ccccc1CC(=O)N[C@@H]1C(=O)N2C(C(=O)O)=C(CSc3nnnn3CC(=O)O)CS[C@H]12 [CEFORANIDE],pKa,[10],8.88
same,pKa,[8],2.01
same,pKa,[9],3.63
CC(CN(C)C)CN1c2ccccc2CCc2ccccc21 (stereo unspecified) [TRIMIPRAMINE],LogD7.4,[7],2.95
same,fraction unbound at 5 h,[2]; PPB,0.069
O=C(O)C(c1ccccc1)N1CCC(CN2CCC(Oc3ccc(Cl)c(Cl)c3)CC2)CC1 (stereo unspecified),pKa,[10],9.6
same,logD,"[1]; pH 7.4, LogD7.4",2.17
same,microsomal CLint,[14]; microsomes,< 3 µL/min/mg
same,pKa,[6],7.7
same,pKa,[8],3
Clc1ccc2c(c1)CCc1cccnc1C2=C1CCNCC1 [DESLORATADINE],pKa,[10],10
same,logD,[1]; pH 7.4,1.48
same,fraction unbound at 5 h,[3],0.145
same,fraction unbound at 5 h,[15],0.183
same,hepatocyte CLint,[12],26.9 µL/min/1e6 cells
same,pKa,[6],4.57
CS(=O)(=O)c1ccc(-c2cc(C(F)(F)F)ccc2OCC(=O)O)c(Cl)c1,LogD7.4,[7],-0.52
same,fraction unbound at 5 h,[2]; PPB,0.0418
same,fraction unbound at 5 h,[3],0.0499
COc1ccc(CCN2CCC(Nc3nc4ccccc4n3Cc3ccc(F)cc3)CC2)cc1 [ASTEMIZOLE],pKa,[10],9.62
same,solubility thermodynamic,[11],5.6 µM
same,fraction unbound at 5 h,[2]; PPB,0.0262
same,microsomal CLint,[14]; liver microsomes,66 µL/min/mg
same,pKa,[6],6.33
CCS(=O)(=O)c1cccc(-c2cc(C(F)(F)F)ccc2OCC(=O)O)c1,LogD7.4,[7],-0.66
CCS(=O)(=O)c1ccc(-c2cc(Cl)ccc2OCC(=O)O)c(F)c1,LogD7.4,[7],-0.92
same,fraction unbound at 5 h,[2]; PPB,0.0488
same,fraction unbound at 5 h,[3],0.0568
same,fraction unbound at 5 h,[4],0.0084
same,microsomal CLint,[14]; microsomes,< 3 µL/min/mg
same,hepatocyte CLint,[12],4.24 µL/min/1e6 cells
same,hepatocyte CLint,[13],< 3 µL/min/1e6 cells
same,pKa,[8],3
CCS(=O)(=O)c1ccc(-c2cc(Cl)ccc2OCC(=O)O)c(C)c1,LogD7.4,[7],-0.65
CC(C)N1CCN(Cc2cnc(-c3cc(-c4cccc5[nH]ccc45)cc4[nH]ncc34)o2)CC1 [NEMIRALISIB],pKa,[10],8.26
same,logD,"[1]; pH 7.4, LogD7.4",3.49
same,fraction unbound at 5 h,[2]; PPB,0.03
same,fraction unbound at 5 h,[3],0.0358
same,pKa,[6],2.4
Cc1cc(N(C)S(C)(=O)=O)ccc1-c1cc(C(F)(F)F)ccc1OCC(=O)O,LogD7.4,[7],-0.59
same,microsomal CLint,[14]; liver microsomes,< 3 µL/min/mg
O=C(O)c1cc(=O)c2ccc(O)cc2o1,pKa,[8],< 2
same,pKa,[9],7.3
CCCc1c2oc(C(=O)O)cc(=O)c2cc2c(=O)cc(C(=O)O)n(CC)c12 [NEDOCROMIL],pKa,[8],< 2
same,pKa,[9],< 2
O=C(O)c1ccccc1N1CCC(CN2CCC(Oc3ccc(Cl)c(Cl)c3)CC2)CC1,pKa,[10],8.9
same,microsomal CLint,[14]; liver microsomes,8 µL/min/mg
same,pKa,[6],7.7
same,pKa,[8],3.2
CC(C)(C)NC[C@H](O)COc1nsnc1N1CCOCC1 [TIMOLOL],LogD7.4,[7],-0.35 and -0.22
same,fraction unbound at 5 h,[2]; PPB,0.597
same,hepatocyte CLint,[12],> 150 µL/min/1e6 cells
same,hepatocyte CLint,[13],4.57 µL/min/1e6 cells
O=C(O)[C@@H](Cc1ccccc1)N1CCC(CN2CCC(Oc3ccc(Cl)c(Cl)c3)CC2)CC1,pKa,[10],9.3
same,fraction unbound at 5 h,[2]; PPB,0.314
same,microsomal CLint,[14]; liver microsomes,< 3 µL/min/mg
same,pKa,[6],7
CN(C)CCn1nnnc1SCC1=C(C(=O)O)N2C(=O)[C@@H](NC(=O)Cc3csc(N)n3)[C@H]2SC1 [CEFOTIAM],pKa,[10],8.18
same,pKa,[6],4.61
same,pKa,[8],2.41
CC(CCc1ccccc1)NCC(O)c1ccc(O)c(C(N)=O)c1 (stereo unspecified) [LABETALOL],LogD7.4,[7],1.06
same,fraction unbound at 5 h,[2]; PPB,0.376
CN(c1ccc(-c2cc(F)ccc2OCC(=O)O)c(Cl)c1)S(C)(=O)=O,LogD7.4,[7],-1.17
CN1Cc2c(N)cccc2C(c2ccccc2)C1 (stereo unspecified) [NOMIFENSINE],LogD7.4,[7],2.11
same,logD,"[1]; pH 7.4, LogD7.4",2.08
CN1CCN(CCCN2c3ccccc3Sc3ccc(Cl)cc32)CC1 [PROCHLORPERAZINE],LogD7.4,[7],3.92
CCCc1c2nc(C(=O)O)cc(Cl)c2cc2c(=O)cc(C(=O)O)oc12,pKa,[9],3.7
CS(=O)(=O)c1ccc(-c2cc(Cl)ccc2OCC(=O)O)c(Cl)c1,LogD7.4,[7],-0.75
same,fraction unbound at 5 h,[2]; PPB,0.0251
same,fraction unbound at 5 h,[3],0.035
Cc1ccccc1C[C@@H](C(=O)O)N1CCC(CN2CCC(Oc3ccc(Cl)c(Cl)c3)CC2)CC1,pKa,[10],9.2
same,solubility thermodynamic,[11],12.3 µM
same,microsomal CLint,[14]; liver microsomes,< 3 µL/min/mg
same,pKa,[6],7.55
O=C(O)c1cc(O)cc(Cl)c1,pKa,[8],3.81
same,pKa,[9],8.57
O=c1[nH]c2c(O)ccc([C@@H](O)CNCCc3cccc(CN4CCCC4)c3)c2s1,LogD7.4,[7],-0.28
O=C(NO)c1ccccc1O [SALICYLHYDROXAMIC ACID],microsomal CLint,[14]; liver microsomes,< 3 µL/min/mg
same,pKa,[8],7.5
same,pKa,[9],9.9
COc1ccnc(CSc2nc3ccccc3[nH]2)c1,pKa,[10],5.3
same,logD,"[1]; pH 7.4, LogD7.4",2.89
same,microsomal CLint,[14]; liver microsomes,86 µL/min/mg
same,hepatocyte CLint,[12],> 150 µL/min/1e6 cells
same,pKa,[6],3
CS(=O)(=O)c1ccc(-c2cc(C(F)(F)F)ccc2OCC(=O)O)cc1,LogD7.4,[7],-0.87
same,microsomal CLint,[14]; liver microsomes,< 3 µL/min/mg
CO[C@@]1(NC(=O)CSCC#N)C(=O)N2C(C(=O)O)=C(CSc3nnnn3C)CS[C@@H]21 [CEFMETAZOLE],fraction unbound at 5 h,[2]; PPB,0.194
same,pKa,[8],3.37
same,pKa,[9],10.2
